Assay results: the supplement of paper PMC10307832

Legend:
Assay in all cases: relative viability (nuclei count vs DMSO), 5 days (fraction); higher = more cells survive
[1] = compound: COc1cccc2c1C(=O)c1c(O)c3c(c(O)c1C2=O)C[C@@](O)(C(=O)CO)C[C@@H]3O[C@H]1C[C@H](N)[C@H](O)[C@H](C)O1 [Doxorubicin] + CC(=O)c1c(C)c2cnc(Nc3ccc(N4CCNCC4)cn3)nc2n(C2CCCC2)c1=O [Palbociclib] (partner 0.5 µM)
Method in brief: (§1)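 Lung cancer cell lines were seeded in 1536-well plates and dosed by pin tool the next day, with either a single drug or a fixed anchor-drug dose combined with five library-drug doses (not always all listed) spaced in √10 steps. Five days later, one step fixed the cells and stained their nuclei (final 0.05% Triton X-100, 1% formaldehyde, 1 ug/ml Hoechst), and nuclei were counted on 4× images. Relative viability is the nuclei count in treated wells divided by the count in vehicle wells, and each value is the median of duplicate plates.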

Doxorubicin + Navitoclax = compound: COc1cccc2c1C(=O)c1c(O)c3c(c(O)c1C2=O)C[C@@](O)(C(=O)CO)C[C@@H]3O[C@H]1C[C@H](N)[C@H](O)[C@H](C)O1 [Doxorubicin] + CC1(C)CCC(c2ccc(Cl)cc2)=C(CN2CCN(c3ccc(C(=O)NS(=O)(=O)c4ccc(N[C@H](CCN5CCOCC5)CSc5ccccc5)c(S(=O)(=O)C(F)(F)F)c4)cc3)CC2)C1 [Navitoclax] (partner 0.5 µM)
Method in brief: as §1

BAY61-3606 + Tozasertib = compound: COC1=C(C=C(C=C1)C2=CC3=NC=CN3C(=N2)NC4=C(C=CC=N4)C(=O)N)OC [BAY61-3606] + Cc1cc(Nc2cc(N3CCN(C)CC3)nc(Sc3ccc(NC(=O)C4CC4)cc3)n2)n[nH]1 [Tozasertib] (partner 0.1 µM)
Method in brief: as §1

Doxorubicin + Linsitinib = compound: COc1cccc2c1C(=O)c1c(O)c3c(c(O)c1C2=O)C[C@@](O)(C(=O)CO)C[C@@H]3O[C@H]1C[C@H](N)[C@H](O)[C@H](C)O1 [Doxorubicin] + C[C@]1(O)C[C@@H](c2nc(-c3ccc4ccc(-c5ccccc5)nc4c3)c3c(N)nccn32)C1 [Linsitinib] (partner 1 µM)
Method in brief: as §1

Cell Line	relative viability ([1]; first compound 0.001 µM)	relative viability ([1]; first compound 0.003162 µM)	relative viability ([1]; first compound 0.01 µM)	relative viability ([1]; first compound 0.03162 µM)	relative viability ([1]; first compound 0.1 µM)	relative viability (Doxorubicin + Navitoclax; first compound 0.001 µM)	relative viability (Doxorubicin + Navitoclax; first compound 0.003162 µM)	relative viability (Doxorubicin + Navitoclax; first compound 0.01 µM)	relative viability (Doxorubicin + Navitoclax; first compound 0.03162 µM)	relative viability (Doxorubicin + Navitoclax; first compound 0.1 µM)	relative viability (BAY61-3606 + Tozasertib; first compound 0.02 µM)	relative viability (BAY61-3606 + Tozasertib; first compound 0.06325 µM)	relative viability (BAY61-3606 + Tozasertib; first compound 0.2 µM)	relative viability (BAY61-3606 + Tozasertib; first compound 0.6325 µM)	relative viability (BAY61-3606 + Tozasertib; first compound 2 µM)	relative viability (Doxorubicin + Linsitinib; first compound 0.001 µM)	relative viability (Doxorubicin + Linsitinib; first compound 0.003162 µM)	relative viability (Doxorubicin + Linsitinib; first compound 0.01 µM)	relative viability (Doxorubicin + Linsitinib; first compound 0.03162 µM)	relative viability (Doxorubicin + Linsitinib; first compound 0.1 µM)
NCI-H460	0.103	0.108	0.0853	0.041	0.007	1.07	1.18	0.945	0.0444	0.0158	0.447	0.0447	0.139	0.0713	0.0263	0.714	0.687	0.385	0.0347	0.0076
SK-LU-1	0.351	0.414	0.351	0.333	0.355	0.811	0.631	0.806	0.301	0.218	0.315	0.282	0.264	0.231	0.2	1.1	1.23	0.891	0.435	0.43
COR-L23	0.327	0.274	0.236	0.181	0.106	1.03	1.12	0.82	0.63	0.169	0.203	0.133	0.148	0.14	0.117	0.881	1.08	0.908	0.331	0.18
NCI-H2126	0.349	0.347	0.371	0.345	0.386	0.853	0.826	0.864	0.884	0.928	0.895	0.485	0.801	0.945	0.331	0.704	0.748	0.739	0.712	0.718
NCI-H1975	0.413	0.568	0.501	0.383	0.324	1.2	1.22	1.06	0.791	0.569	0.763	0.521	0.323	0.257	0.11	1.09	1.02	0.845	0.572	0.464
NCI-H1944	0.374	0.293	0.337	0.272	0.353	1.05	1.13	1.03	0.977	1.19	0.256	0.224	0.239	0.249	0.215	1.17	1.23	1.34	1.16	1.3
NCI-H2085	0.472	0.458	0.461	0.53	0.512	1.28	1.24	1.09	0.882	1.01	0.809	0.531	0.546	0.481	0.345	1.03	0.927	0.815	0.716	0.82
COR-L 105	0.436	0.387	0.367	0.37	0.327	0.965	0.721	0.724	0.48	0.377	0.349	0.334	0.339	0.36	0.244	1.05	1.04	0.955	0.557	0.433
NCI-H23	0.503	0.568	0.479	0.428	0.44	–	0.686	0.767	0.698	0.926	0.378	0.342	0.296	0.342	0.236	–	0.539	0.683	0.473	0.638
PC-14	0.532	0.501	0.312	0.194	0.0531	0.997	1.1	0.973	1.01	0.945	0.597	0.637	0.5	0.568	0.174	0.924	0.982	0.959	0.922	0.948
NCI-H2087	0.259	0.216	0.235	0.176	0.227	0.973	1.05	1.05	0.967	0.918	0.223	0.253	0.166	0.176	0.157	0.789	0.912	1.14	0.892	0.98
NCI-H1755	0.473	0.481	0.434	0.474	0.468	1	1.03	0.927	0.991	1.02	0.681	0.422	0.49	0.438	0.403	0.971	0.98	1.02	1.05	1.01
NCI-H2228	0.508	0.914	0.555	0.301	0.184	1.24	0.752	0.876	0.552	0.321	0.274	0.173	0.147	0.16	0.159	0.825	0.615	0.634	0.178	0.311
EMC-BAC-2	0.524	0.465	0.442	0.383	0.403	1.16	1.25	1.16	1.19	1.15	0.288	0.19	0.243	0.238	0.225	0.797	0.864	0.84	0.854	0.776
NCI-H2009	0.238	0.207	0.179	0.0594	0.168	1.21	1.15	1.17	0.962	0.604	0.847	0.648	0.67	0.651	0.511	1.16	1.15	1.28	0.953	0.639
